Experimental data published in article PMC11876601 (Molecular Systems Biology, 2025).
Several values for one entry are separate records, joined by “and”; a condition that tells them apart may be missing. Identical values can stand only once. Like-named read-outs stand apart in the source and are kept apart here.

What was measured:
PANC-1 cells = assay: Cell proliferation assay, GEM + ATR inhibitor (Incucyte confluence, 72 h); conditions: for EC50: Homo sapiens; for Curve bottom / Curve top: PANC-1, plateau of fitted curve, ratio drug/vehicle confluence; for Response: ATRi 0 nM (GEM), R1-R3;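 as to EC50: in combination experiments GEM is titrated while ATRi is held at a fixed sub-EC50 dose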;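 as to all read-outs here: PANC-1 confluence at 72 h taken as raw values, not normalized to starting confluence, with each experiment run in triplicate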
Description: Cells were seeded at 5000 cells/well into 96-well flat bottom plates (Eppendorf) and allowed to attach overnight. […] Cells were incubated for 72 h at 37 °C and 5% CO2. Cell confluence readouts at 72 h were either normalized to their initial confluence using the Incucyte software (AsPC-1) or used without prior normalization (all others). […] Each experiment was performed in triplicates, the data was plotted as mean ± standard deviation (s.d.).

MiaPaCa-2 = assay: cells; design: ATPlite luminescence viability of PDAC cell lines, 11-dose single-agent curves, 4-parameter fit; conditions: Homo sapiens, MIA PaCa-2, 72 h, read-out: EC50 [nM]
How it was run: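 Drug-combination screening used cells plated at 1000 to 5000 per well one day before treatment. Final DMSO was 0.2%. Each plate held untreated negative-control wells and 5 µM staurosporine positive-control wells.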

[1] = PANC-1, 72 h, read-out: EC50 mean [nM], PANC-1, experiment ATRi (ATR inhibitor alone), mean of replicates
[2] = PANC-1, read-out: EC50 mean [nM], PANC-1, experiment ATRi (ATR inhibitor alone), mean of replicates
[3] = PANC-1, read-out: EC50 mean [nM], PANC-1, experiment GEM+ATRi_dose1, mean of replicates
[4] = PANC-1, read-out: EC50 mean [nM], PANC-1, experiment GEM+ATRi_dose2, mean of replicates
[5] = PANC-1, read-out: EC50 mean [nM], PANC-1, experiment GEM+ATRi_dose3, mean of replicates
[6] = experiment ATRi (ATR inhibitor alone)

| SMILES | EC50 (PANC-1 cells; [1]) [nM] | EC50 (PANC-1 cells; [2]) [nM] | EC50 (PANC-1 cells; [3]) [nM] | EC50 (PANC-1 cells; [4]) [nM] | EC50 (PANC-1 cells; [5]) [nM] | Curve top (PANC-1 cells; experiment GEM+ATRi_dose1) | Curve top (PANC-1 cells; experiment GEM+ATRi_dose2) | Curve top (PANC-1 cells; experiment GEM+ATRi_dose3) | EC50 (MiaPaCa-2) [nM] | other results |
| --- | --- | --- | --- | --- | --- | --- | --- | --- | --- | --- |
| Nc1nn2cc(F)cnc2c1C(=O)Nc1cncc(F)c1N1CCC(C(=O)N2CCN(C3COC3)CC2)CC1 [Gartisertib] | 7880 | 7880 | 4.13 | 8.99 | 6.69 | 0.48 and 0.43 and 0.49 | 0.47 and 0.43 and 0.52 | 0.47 and 0.45 and 0.50 | – | Curve bottom (PANC-1 cells; [6]): 1.03 and 0.99 and 0.93; Curve bottom (PANC-1 cells; experiment GEM+ATRi_dose3): 0.95 and 0.86 and 1.00 |
| CNCc1ccc(-c2cc(-c3nc(-c4ccc(S(=O)(=O)C(C)C)cc4)cnc3N)on2)cc1 [Berzosertib] | 22200 | 22200 | 4.43 | 5.92 | 4.05 | 0.60 and 0.57 | 0.57 and 0.55 | 0.55 and 0.54 | – | EC50 (PANC-1 cells; PANC-1, PANC-1, experiment ATRi (ATR inhibitor alone), replicates R1-R3): 31800 nM; EC50 (PANC-1 cells; PANC-1, PANC-1, experiment GEM+ATRi_dose1, replicates R1-R3): 4.75 nM; EC50 (PANC-1 cells; PANC-1, PANC-1, experiment GEM+ATRi_dose2, replicates R1-R3): 6.05 nM; EC50 (PANC-1 cells; PANC-1, PANC-1, experiment GEM+ATRi_dose3, replicates R1-R3): 3.25 nM; EC50 (PANC-1 cells; PANC-1, read-out: pEC50, PANC-1 (converted), experiment ATRi (ATR inhibitor alone), -log10 of EC50 [M]): 31600 nM; EC50 (PANC-1 cells; PANC-1, read-out: pEC50, PANC-1 (converted), experiment GEM+ATRi_dose1, replicates R1-R3, -log10 of EC50 [M]): 4.79 nM; EC50 (PANC-1 cells; PANC-1, read-out: pEC50, PANC-1 (converted), experiment GEM+ATRi_dose2, replicates R1-R3, -log10 of EC50 [M]): 6.03 nM; EC50 (PANC-1 cells; PANC-1, read-out: pEC50, PANC-1 (converted), experiment GEM+ATRi_dose3, replicates R1-R3, -log10 of EC50 [M]): 3.24 nM; Curve bottom (PANC-1 cells; [6]): 1.01 and 0.99; Curve bottom (PANC-1 cells; experiment GEM+ATRi_dose3): 0.93 and 0.91 |
| C[C@]12O[C@H](C[C@]1(O)CO)n1c3ccccc3c3c4c(c5c6ccccc6n2c5c31)CNC4=O [Lestaurtinib] | – | – | – | – | – | – | – | – | 275 | – |
| Nc1ccn([C@@H]2O[C@H](CO)[C@@H](O)C2(F)F)c(=O)n1 [GEM, Gemcitabine] | – | – | – | – | – | – | – | – | – | EC50 (PANC-1 cells; PANC-1, PANC-1, experiment GEM (GEM alone, in the series of the ATRi named in column Drug), replicates R1-R3): 58.4 nM; EC50 (PANC-1 cells; PANC-1, read-out: pEC50, PANC-1 (converted), experiment GEM (GEM alone, in the series of the ATRi named in column Drug), -log10 of EC50 [M]): 58.9 nM; Response (PANC-1 cells; PANC-1, GEM 1 nM): 55.73 and 93.02 and 87.94; Response (PANC-1 cells; PANC-1, GEM 3 nM): 54.62 and 89.30 and 88.72; Response (PANC-1 cells; PANC-1, GEM 10 nM): 65.10 and 93.01 and 80.93; Response (PANC-1 cells; PANC-1, GEM 30 nM): 43.73 and 76.60 and 68.58; Response (PANC-1 cells; PANC-1, GEM 300 nM): 45.56 and 60.97 and 63.22; Response (PANC-1 cells; PANC-1, GEM 1000 nM): 38.26 and 66.03 and 59.27; Response (PANC-1 cells; PANC-1, GEM 3000 nM): 35.94 and 56.55 and 61.30; Curve bottom (PANC-1 cells; experiment GEM (GEM alone)): 1.02 and 1.05 and 1.06 and 0.91 and 1.00 and 0.98; Curve top (PANC-1 cells; experiment GEM (GEM alone)): 0.74 |
| COc1cc(N2CCC(N3CCN(C)CC3)CC2)ccc1Nc1ncc(Cl)c(Nc2ccccc2P(C)(C)=O)n1 [Brigatinib] | – | – | – | – | – | – | – | – | 177 | – |
| C[C@@H]1COCCN1c1cc(C2([S@](C)(=N)=O)CC2)nc(-c2cc[nH]c3nccc2-3)n1 [Ceralasertib] | 10500 | 10500 | 12 | 22 | 14.5 | 0.75 and 0.55 and 0.69 | 0.69 and 0.59 and 0.62 | 0.55 and 0.43 and 0.50 | – | – |
| CCN1CCN(Cc2ccc(Nc3ncc(F)c(-c4cc(F)c5nc(C)n(C(C)C)c5c4)n3)nc2)CC1 [Abemaciclib] | – | – | – | – | – | – | – | – | 82.2 | – |
